Values joined by “and” are separate entries in the source; they are usually repeats but may differ in a detail not shown here. Identical values can stand only once. Like-named read-outs stand apart in the source and are kept apart here.
Tests used:
[1] = target: T1, CYP3A4 (Homo sapiens, UniProt P08684); test: Inhibition of BFC O-debenzylation activity of CYP3A4 in a reconstituted system with rat cytochrome P450 reductase
Procedure: (§1) Thermal denaturation experiments were conducted as previously described (Sevrioukova and Poulos, 2013 J. Med. Chem. 56: 3733-41) to compare ligand-dependent changes in CYP3A4 stability. The inhibitory potency of the investigated compounds on the 7-benzyloxy-4-(trifluoromethyl)coumarin (BFC) O-debenzylation activity of CYP3A4 was evaluated fluorometrically in a reconstituted system with rat cytochrome P450 reductase (CPR). The reaction was carried out at room temperature in 100 mM phosphate buffer, pH 7.4, containing catalase and superoxide dismutase (2 Units/ml each). A mixture of 1 μM CYP3A4 and 1 μM CPR was preincubated for 1 hour at room temperature and diluted by 20-fold with the assay buffer immediately before measurements. BFC (50 μM) and various concentrations of analogs were added to the protein mixture 2 minutes prior to the reaction initiation with 100 μM NADPH. Formation of 7-hydroxy-4-trifluoromethylcoumarin was followed in a Hitachi F100 fluorometer using λex=430 nm and λem=500 nm. IC50 values were derived from the [% activity] vs. [inhibitor] plots.

[2] = target: T1, CYP3A4; test: Spectral binding titrations (equilibrium titration of CYP3A4, spectral dissociation constant); set-up: 4-histidine tag (C); made in house; host or cells: E. coli
Procedure: Left insets depict difference spectra between the ligand-free and inhibitor-bound forms. Right insets are plots of the absorbance change versus inhibitor concentration, based on which the Kd values were calculated.

[3] = target: T1, CYP3A4; test: 442 nm peak in the absorbance spectrum of ligand-bound ferrous CYP3A4
[4] = target: T1, CYP3A4; test: Thermal denaturation (ligand-dependent changes in CYP3A4 melting temperature); format: binding; set-up: 4-histidine tag (C); made in house; host or cells: E. coli
Procedure: as §1

[5] = target: T1, CYP3A4; test: Kinetics of ligand binding to CYP3A4 (stopped flow); conditions: for kfast (rate constant for the fast phase of the binding reaction): saturating ligand concentrations, room temperature, 2 μM CYP3A4
Procedure: Kinetics of ligand binding to CYP3A4 was monitored at room temperature in 50 mM phosphate, pH 7.4, in a SX.18MV stopped flow apparatus (Applied Photophysics,
UK) after mixing 2 μM CYP3A4 with various concentrations of ligands. […] Kinetic data were analyzed using the program IgorPro (WaveMetrics, Inc).

[6] = target: T1, CYP3A4
Procedure: as §1

[7] = target: T1, CYP3A4; remark: listed apart in the source
[8] = 50 mM phosphate pH 7.4, 20% glycerol, 1 mM dithiothreitol, single site, read-out: Ks (spectral dissociation constant)
[9] = read-out: IC50 (concentration required for half-maximal inactivation of recombinant CYP3A4), BFC 50 μM, 100 μM NADPH, room temperature, pH 7.4

T1 sequence (P08684 with tags, fused parts or gaps): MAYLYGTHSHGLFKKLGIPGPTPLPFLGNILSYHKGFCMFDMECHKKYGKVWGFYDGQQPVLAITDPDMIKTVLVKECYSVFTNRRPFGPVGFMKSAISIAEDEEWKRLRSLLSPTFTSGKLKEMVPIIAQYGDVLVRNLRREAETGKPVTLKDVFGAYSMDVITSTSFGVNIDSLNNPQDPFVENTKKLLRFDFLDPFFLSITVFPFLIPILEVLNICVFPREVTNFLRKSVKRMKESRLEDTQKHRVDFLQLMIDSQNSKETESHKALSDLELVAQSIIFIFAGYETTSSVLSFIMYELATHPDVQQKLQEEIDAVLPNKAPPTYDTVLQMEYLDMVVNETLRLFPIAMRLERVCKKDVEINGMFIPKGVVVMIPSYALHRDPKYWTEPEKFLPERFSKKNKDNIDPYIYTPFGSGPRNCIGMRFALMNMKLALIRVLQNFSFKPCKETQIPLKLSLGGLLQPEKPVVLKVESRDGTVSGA

Row | Structure (SMILES) | 442 nm absorption of the ferrous ligand-bound form of CYP3A4 [3] | Kd [2, 8] [µM] | ΔTm (ligand-dependent changes in the melting temperature of CYP3A4) [4] [°C] | kfast (rate constant for the fast phase of the binding reaction) [5] | IC50 [1, 9] | other results
1 | CC(C)(C)OC(=O)N[C@H](CN[C@@H](Cc1ccccc1)C(=O)NCCc1cccnc1)Cc1ccccc1 [Compound 01ERS089, N-BOC-Trp-S-N-Ph-Cys-CONH-Et-Pyr] |  |  |  |  |  | IC50 [1]: 0.39 µM; Kd ([2]; calculated from plots of absorbance change versus inhibitor concentration (FIG. 37), read-out: Kd (binding affinity to CYP3A4)): 0.13 µM
2 | c1ccncc1 [pyridine, reference compound] | undetectable | 4500 ± 400 | 0 | 0.5 ± 0.1 s⁻¹ |  | IC50 ([1]; IC50 (concentration required for half-maximal inactivation of recombinant CYP3A4), BFC 50 μM, 100 μM NADPH, room temperature, pH 7.4): 4000 ± 500 µM; IC50 ([1]; IC50 on the BFC debenzylation activity of CYP3A4, one range given for pyridine, aminoethylpyridine and 5 together): 1000 to 4000 µM
3 | NCCCCCC(=O)NCc1cccnc1 [Compound 5] |  |  | −0.2 |  | 1000 ± 150 µM | IC50 [6]: 1 to 4 mM; Kd ([2]; two binding sites, read-out: KS, second of two binding sites): 4400 µM; Kd ([2]; values derived from the two site saturation fit to a titration curve, two binding sites, read-out: Ks (spectral dissociation constant), two site saturation fit): 10 µM; 442 nm absorption of the ferrous ligand-bound form of CYP3A4 [7]: undetectable; rate constants of monophasic binding reaction [5]: 0.5 to 0.8 s⁻¹
4 | NCCc1ccccn1 [aminoethylpyridine, reference compound] | undetectable | 2500 ± 200 | −0.1 | 0.6 ± 0.1 s⁻¹ | 5000 ± 600 µM | 
5 | CC(C)(C)OC(=O)N[C@H](CSCCC(=O)NCc1cccnc1)CC1CCCCC1 [Compound 11] | considerably smaller | 10 ± 1 | −2 ± 0.4 | 4.0 ± 0.2 s⁻¹ | 30 µM | 
6 | CC(C)(C)OC(=O)N[C@H](CSCCC(=O)NCc1cccnc1)Cc1c[nH]c2ccccc12 [Compound 15b] | pronounced | 0.5 ± 0.1 | 0.2 | 8.0 ± 1.5 s⁻¹ | 0.2 µM and 0.21 µM | change of CYP3A4 Tm / thermal stability upon complex formation [4]: slightly increased
7 | CC(C)(C)OC(=O)N[C@H](CSCCC(=O)NCc1cccnc1)Cc1ccccc1 [Compound 15a] | pronounced | 0.9 ± 0.1 | −1 ± 0.2 | 1.7 s⁻¹ and 1.7 ± 0.2 s⁻¹ | 0.5 µM and 0.52 µM | 
8 | CC(C)(C)OC(=O)NCCCCCC(=O)NCc1cccnc1 [Compound 4] | considerably smaller | 105 ± 10 | −0.2 | 20 s⁻¹ and 20 ± 2 s⁻¹ | 75 µM | 

From patent US20190038611A1, “Novel CYP34A-Specific Inhibitors and Methods of Using Same” (THE REGENTS OF THE UNIVERSITY OF CALIFORNIA, priority 2015, published 2019)
